Assay results taken from patent US12295970B2, “Imidazoquinoline compounds and prodrugs thereof” (UNIVERSITY OF KANSAS, priority 2019, dated 2025).

Molecular target: T1, human TLR7 (hTLR7) (Homo sapiens, UniProt Q9NYK1)
T1 construct: host or cells: HEK-293 (HEK-Blue hTLR7)
T1 sequence (Q9NYK1 27-1049): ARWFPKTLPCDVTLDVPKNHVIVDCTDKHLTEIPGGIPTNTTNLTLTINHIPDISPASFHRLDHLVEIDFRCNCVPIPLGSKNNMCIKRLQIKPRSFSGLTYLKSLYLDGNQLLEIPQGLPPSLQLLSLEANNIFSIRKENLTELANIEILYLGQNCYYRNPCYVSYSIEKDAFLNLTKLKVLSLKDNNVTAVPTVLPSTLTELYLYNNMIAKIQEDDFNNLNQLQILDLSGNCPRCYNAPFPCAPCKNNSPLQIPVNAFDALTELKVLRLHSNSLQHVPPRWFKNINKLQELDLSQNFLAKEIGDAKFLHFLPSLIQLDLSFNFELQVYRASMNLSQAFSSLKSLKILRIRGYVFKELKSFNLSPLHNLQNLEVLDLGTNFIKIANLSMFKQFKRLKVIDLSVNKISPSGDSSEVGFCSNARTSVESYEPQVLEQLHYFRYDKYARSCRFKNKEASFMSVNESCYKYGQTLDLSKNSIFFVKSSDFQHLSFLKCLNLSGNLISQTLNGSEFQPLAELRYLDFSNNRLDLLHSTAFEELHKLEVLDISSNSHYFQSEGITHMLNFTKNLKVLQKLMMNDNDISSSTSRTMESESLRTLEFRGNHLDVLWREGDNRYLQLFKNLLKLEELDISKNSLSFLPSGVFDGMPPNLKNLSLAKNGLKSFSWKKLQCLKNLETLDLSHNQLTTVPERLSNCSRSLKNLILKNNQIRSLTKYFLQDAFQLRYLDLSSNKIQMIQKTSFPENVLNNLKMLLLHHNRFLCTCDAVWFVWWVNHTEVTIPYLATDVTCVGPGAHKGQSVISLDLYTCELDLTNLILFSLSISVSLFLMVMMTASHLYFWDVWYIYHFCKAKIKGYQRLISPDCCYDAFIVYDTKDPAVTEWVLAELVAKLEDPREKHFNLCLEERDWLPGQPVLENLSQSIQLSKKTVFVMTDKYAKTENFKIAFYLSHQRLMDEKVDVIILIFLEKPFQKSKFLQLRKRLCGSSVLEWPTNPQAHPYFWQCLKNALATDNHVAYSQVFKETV
Assay: In vitro TLR7 activity assay (HEK-Blue hTLR7, QUANTI-Blue, Example 3)
Type: cell-based
Details: 16 h incubation; Null 1-k subtracted
Experimental: TLR agonist activity was measured in a dose-response study using reporter cell lines expressing the human TLR7 (hTLR7). […] The hTLR7 activity of R848-Toco, the formulation and its components were assessed using HEK-293 cells co-transfected with the hTLR7 gene and an inducible SEAP reporter gene along with the corresponding null control line (HEK-Blue™ hTLR7 and Null-1k cells, Invivogen). Cells were maintained in DMEM media with selective antibiotics according to the manufacturer protocol.^26 HEK-Blue™ cells were seeded into 96 well plates at a density of 220,000 cells/mL with 180 μL/well of culture medium. Stock solutions in DMSO were first serially diluted to seven concentrations (DMSO solutions further diluted into H2O). Each well was stimulated with 20 μL of agonists or agonist-free controls (equivalent concentration of HA-Toco, D-α-Tocopherol succinate, PBS or […] DMSO) at the determined final concentrations in 5 replicates. After 16 h of incubation at 37° C. in a 5% CO2 atmosphere, 20 μL of the supernatant from each well was sampled and spiked into 180 μL of QUANTI-Blue™ solution followed by incubation for 1 h at 37° C. Relative hTLR7 activity was then analyzed by UV-Vis at 637 nm using a microplate UV reader (SpectraMAX GeminiXS, Molecular Devices, San Jose, CA, USA). For each compound and concentration, a corresponding sample was applied to the HEK-Blue™ Null-1k cell line. The TLR7 agonist activity was determined after averaging across hTLR7 replications and subtracting the averaged Null response.
Activation levels were calculated as the difference between the average readings of the hTLR7 cell line and the Null 1-k cell line, to account for non-hTLR7 related induction of NF-κB. […] Therefore, this study confirmed that R848-Toco, formulated with HA-Toco as an emulsion, maintained its TLR agonist activity. […]

## CCOCc1nc2c(N)nc3ccccc3c2n1CC(C)(C)O [Compound 2, resiquimod, reference compound]
  hTLR7 activation (NF-κB, in words): strong dose-dependent activation
